Measured values as given in patent US20250122225A1, “MASP-2 INHIBITORS AND METHODS OF USE” (Omeros Corporation, priority 2023, published 2025).
pKi: −log10 of the molar value. Where a name gives a salt, the structure may show the parent alone.

Tests used:
[1] = target: T1, MASP-2 (CCP1-CCP2-SP) (Homo sapiens, UniProt O00187); experiment: Enzymatic assay for MASP-2 inhibitory activity (fluorogenic substrate); format: biochemical
T1 construct: 15 μL of Enzyme MASP-2 (CCP1-CCP2-SP) in Assay Buffer
Method in brief: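 MASP-2 (CCP1-CCP2-SP) cleaved a fluorogenic substrate based on the C2 cleavage site in 20 mM HEPES pH 7.4, 140 mM NaCl, 0.1% Tween 20 at room temperature. After 20 min the reaction was stopped with 0.1 M acetic acid and fluorescence read. % activity was normalized to DMSO-only and no-enzyme controls; IC50 taken as Ki.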

[2] = target: T2, human α-thrombin (Homo sapiens, UniProt P00734); experiment: Enzymatic assay for thrombin (fluorogenic peptide substrate Boc-VPR-AMC); format: biochemical
T2 construct: enzyme (human α-thrombin (BioPharm® Lab.)) in assay buffer; purchased BioPharm® Lab
Method in brief: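 Human α-thrombin was run with the fluorogenic substrate Boc-VPR-AMC in 20 mM Hepes pH 7.4, 140 mM NaCl, 0.1% Tween 20 at room temperature for 20 min, then stopped with 0.1 M acetic acid. % activity was normalized to DMSO and no-enzyme controls. Under linear conditions IC50 equalled Ki, except for tight-binding inhibitors.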

T1 sequence (O00187 445-686 limits assumed): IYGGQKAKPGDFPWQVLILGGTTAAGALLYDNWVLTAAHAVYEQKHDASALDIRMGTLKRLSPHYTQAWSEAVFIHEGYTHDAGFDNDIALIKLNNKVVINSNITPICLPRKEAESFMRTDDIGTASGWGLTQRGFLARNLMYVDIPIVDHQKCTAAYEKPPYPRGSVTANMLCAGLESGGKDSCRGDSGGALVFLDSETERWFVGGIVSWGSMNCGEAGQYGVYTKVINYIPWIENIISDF
T1 sequence (O00187 287-444 partner limits assumed): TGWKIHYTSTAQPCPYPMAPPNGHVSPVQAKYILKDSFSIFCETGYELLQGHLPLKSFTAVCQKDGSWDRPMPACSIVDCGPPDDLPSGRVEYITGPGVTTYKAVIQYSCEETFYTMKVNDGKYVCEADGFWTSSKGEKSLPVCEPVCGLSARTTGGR

| Structure (SMILES) | pKi [1] | pKi [2] |
| --- | --- | --- |
| Cc1cc(C)cc(CNc2ncc3n(c2=O)[C@H](C(=O)N[C@@H]2CCc4nc(N)ccc42)CC3)c1 [Compound 186, (S)-N-((R)-2-amino-6,7-dihydro-5H-cyclopenta[b]pyridin-5-yl)-3-((3,5-dimethylbenzyl)amino)-4-oxo-4,6,7,8-tetrahydropyrrolo[1,2-a]pyrazine-6-carboxamide] | > 6.30 | > 6.30 |
| Cc1cc(C)cc(CNc2ncc3n(c2=O)[C@H](C(=O)NCc2ccc(CN)nc2)CC3)c1 [Compound 109, (S)-N-((6-(aminomethyl)pyridin-3-yl)methyl)-3-((3,5-dimethylbenzyl)amino)-4-oxo-4,6,7,8-tetrahydropyrrolo[1,2-a]pyrazine-6-carboxamide trifluoroacetate] | > 6.30 | 5.00 to 5.60 |
| O=C(NCc1cc2c(s1)CNC2)[C@@H]1CCc2cnc(N[C@@H](c3ccccc3)C3CCC3)c(=O)n21 [Compound 256] | > 6.30 | > 6.30 |
| CC(C)[C@@H](Nc1ncc2n(c1=O)[C@H](C(=O)NCc1cc3c(s1)CNC3)CC2)c1ccccc1 [Compound 255] | > 6.30 | > 6.30 |
| Cc1cc(F)cc(CNc2ncc3n(c2=O)[C@H](C(=O)NCc2ccc([C@@H](C)N)cc2)CC3)c1 [Compound 173, (S)—N-(4-((R)-1-aminoethyl)benzyl)-3-((3-fluoro-5-methylbenzyl)amino)-4-oxo-4,6,7,8-tetrahydropyrrolo[1,2-a]pyrazine-6-carboxamide trifluoroacetate] | 5.00 to 5.60 | < 4.60 |
| Cc1nc(N)ccc1CNC(=O)[C@@H]1CCc2cnc(NCc3cccc(C(C)(C)O)c3)c(=O)n21 [Compound 66, (S)-N-((6-amino-2-methylpyridin-3-yl)methyl)-3-((3-(2-hydroxypropan-2-yl)benzyl)amino)-4-oxo-4,6,7,8-tetrahydropyrrolo[1,2-a]pyrazine-6-carboxamide] | > 6.30 | > 6.30 |
| Cc1ccc(F)c(CNc2ncc3n(c2=O)[C@H](C(=O)N[C@H](C)c2ccc(N)nc2)CC3)c1 [Compound 199, (S)-N-((R)-1-(6-aminopyridin-3-yl)ethyl)-3-((2-fluoro-5-methylbenzyl)amino)-4-oxo-4,6,7,8-tetrahydropyrrolo[1,2-a]pyrazine-6-carboxamide trifluoroacetate] | > 6.30 | 5.00 to 5.60 |
| O=C(NCc1cc2c(s1)CNC2)[C@@H]1CCc2cnc(N[C@@H]3CCc4ccc(-c5ccccc5)cc43)c(=O)n21 [Compound 260, (S)-N-((5,6-dihydro-4H-thieno[2,3-c]pyrrol-2-yl)methyl)-4-oxo-3-(((R)-6-phenyl-2,3-dihydro-1H-inden-1-yl)amino)-4,6,7,8-tetrahydropyrrolo[1,2-a]pyrazine-6-carboxamide trifluoroacetate] | > 6.30 | 5.00 to 5.60 |
| Cc1cc(F)cc(CNc2ncc3n(c2=O)[C@H](C(=O)NCc2cnc4[nH]cc(Cl)c4c2)CC3)c1 [Compound 182, (S)—N-((3-chloro-1H-pyrrolo[2,3-b]pyridin-5-yl)methyl)-3-((3-fluoro-5-methylbenzyl)amino)-4-oxo-4,6,7,8-tetrahydropyrrolo[1,2-a]pyrazine-6-carboxamide] | > 6.30 | > 6.30 |
| CC(C)[C@@H](Nc1ncc2n(c1=O)[C@H](C(=O)N[C@@H](C)c1cc3c(s1)CNC3)CC2)c1ccccc1 [Compound 275, (S)-N-((S)-1-(5,6-dihydro-4H-thieno[2,3-c]pyrrol-2-yl)ethyl)-3-(((R)-2-methyl-1-phenylpropyl)amino)-4-oxo-4,6,7,8-tetrahydropyrrolo[1,2-a]pyrazine-6-carboxamide trifluoroacetate] | > 6.30 | < 4.60 |
| COc1cc(F)cc(CNc2ncc3n(c2=O)[C@H](C(=O)N[C@H](C)c2ccc(N)nc2)CC3)c1 [Compound 200, (S)-N-((R)-1-(6-aminopyridin-3-yl)ethyl)-3-((3-fluoro-5-methoxybenzyl)amino)-4-oxo-4,6,7,8-tetrahydropyrrolo[1,2-a]pyrazine-6-carboxamide trifluoroacetate] | > 6.30 | 5.00 to 5.60 |
| COc1cc(C)cc(CNc2ncc3n(c2=O)[C@H](C(=O)NCc2ccc(N)nc2C)CC3)c1 [Compound 49, (S)-N-((6-amino-2-methylpyridin-3-yl)methyl)-3-((3-methoxy-5-methylbenzyl)amino)-4-oxo-4,6,7,8-tetrahydropyrrolo[1,2-a]pyrazine-6-carboxamide] | > 6.30 | > 6.30 |
| Cc1cc(F)cc(CNc2nc(-c3cnn(C)c3)c3n(c2=O)[C@H](C(=O)NCc2ccc(N)nc2C)CC3)c1 [Compound 174, (S)—N-((6-amino-2-methylpyridin-3-yl)methyl)-3-((3-fluoro-5-methylbenzyl)amino)-1-(1-methyl-1H-pyrazol-4-yl)-4-oxo-4,6,7,8-tetrahydropyrrolo[1,2-a]pyrazine-6-carboxamide trifluoroacetate] | > 6.30 | < 4.60 |
| Cc1cc(F)cc(CNc2ncc3n(c2=O)[C@H](C(=O)NCc2cccc(Cl)c2)CC3)c1 [Compound 180] | 5.60 to 6.30 | 5.00 to 5.60 |

Results, then the compound that gave them:

| pKi [1] | pKi [2] | Structure (SMILES) |
| --- | --- | --- |
| > 6.30 | 5.00 to 5.60 | Cc1cc(F)cc(CNc2nc(Cl)c3n(c2=O)[C@H](C(=O)NCc2ccc(N)nc2C)CC3)c1 [Compound 212, (S)—N-((6-amino-2-methylpyridin-3-yl)methyl)-1-chloro-3-((3-fluoro-5-methylbenzyl)amino)-4-oxo-4,6,7,8-tetrahydropyrrolo[1,2-a]pyrazine-6-carboxamide trifluoroacetate] |
| 4.60 to 5.00 | < 4.60 | Cc1cc(F)cc(CNc2nc(Cl)c3n(c2=O)[C@H](C(=O)NCc2cnc4ccccn24)CC3)c1 [Compound 165, (S)-1-chloro-3-((3-fluoro-5-methylbenzyl)amino)-N-(imidazo[1,2-a]pyridin-3-ylmethyl)-4-oxo-4,6,7,8-tetrahydropyrrolo[1,2-a]pyrazine-6-carboxamide trifluoroacetate] |
| > 6.30 | < 4.60 | O=C(NCc1cc2cnccc2[nH]1)[C@@H]1CCc2c(Cl)nc(NC3CCC3)c(=O)n21 [Compound 100, (S)—N-((1H-pyrrolo[3,2-c]pyridin-2-yl)methyl)-1-chloro-3-(cyclobutylamino)-4-oxo-4,6,7,8-tetrahydropyrrolo[1,2-a]pyrazine-6-carboxamide trifluoroacetate] |
| > 6.30 | 5.00 to 5.60 | Cc1nc(N)ccc1CNC(=O)[C@@H]1CCc2c(Cl)nc(NCc3ccc(Cl)cc3)c(=O)n21 [Compound 30, trifluoroacetate] |
| 5.60 to 6.30 | 4.60 to 5.00 | Cc1nc(N)ccc1CNC(=O)[C@@H]1CCc2c(Cl)nc(NCC3COC3)c(=O)n21 [Compound 146, (S)-N-((6-amino-2-methylpyridin-3-yl)methyl)-1-chloro-3-((oxetan-3-ylmethyl)amino)-4-oxo-4,6,7,8-tetrahydropyrrolo[1,2-a]pyrazine-6-carboxamide] |
| > 6.30 | 5.60 to 6.30 | Cc1cc(F)cc(CNc2nc(-c3ccnn3C)c3n(c2=O)[C@H](C(=O)NCc2ccc(N)nc2C)CC3)c1 [Compound 175, (S)-N-((6-amino-2-methylpyridin-3-yl)methyl)-3-((3-fluoro-5-methylbenzyl)amino)-1-(1-methyl-1H-pyrazol-5-yl)-4-oxo-4,6,7,8-tetrahydropyrrolo[1,2-a]pyrazine-6-carboxamide trifluoroacetate] |
| > 6.30 | 5.60 to 6.30 | Cc1cccc(CNc2ncc3n(c2=O)[C@H](C(=O)NCc2cc4cnccc4[nH]2)CC3)c1C [Compound 59, (S)-N-((1H-pyrrolo[3,2-c]pyridin-2-yl)methyl)-3-((2,3-dimethylbenzyl)amino)-4-oxo-4,6,7,8-tetrahydropyrrolo[1,2-a]pyrazine-6-carboxamide] |
| > 6.30 | 5.00 to 5.60 | Cc1cccc(C2(Nc3ncc4n(c3=O)[C@H](C(=O)NCc3cc5cnccc5[nH]3)CC4)CC2)c1 [Compound 111, (S)—N-((1H-pyrrolo[3,2-c]pyridin-2-yl)methyl)-4-oxo-3-((1-(m-tolyl)cyclopropyl)amino)-4,6,7,8-tetrahydropyrrolo[1,2-a]pyrazine-6-carboxamide trifluoroacetate] |
| > 6.30 | 5.60 to 6.30 | CC[C@@H](Nc1ncc2n(c1=O)[C@H](C(=O)NCc1cc3c(s1)CNC3)CC2)c1cccc(-c2ccccc2)c1 [Compound 267, (S)-3-(((R)-1-([1,1'-biphenyl]-3-yl)propyl)amino)-N-((5,6-dihydro-4H-thieno[2,3-c]pyrrol-2-yl)methyl)-4-oxo-4,6,7,8-tetrahydropyrrolo[1,2-a]pyrazine-6-carboxamide trifluoroacetate] |
| > 6.30 | 5.00 to 5.60 | O=C(NCc1cc2cnccc2[nH]1)[C@@H]1CC2(CC2)c2cnc(NCc3ccccc3)c(=O)n21 [Compound 125, (S)-N-((1H-pyrrolo[3,2-c]pyridin-2-yl)methyl)-3′-(benzylamino)-4′-oxo-6′,7′-dihydro-4′H-spiro[cyclopropane-1,8′-pyrrolo[1,2-a]pyrazine]-6′-carboxamide] |
| > 6.30 | 5.60 to 6.30 | Cc1ccc(C)c(CNc2ncc3n(c2=O)[C@H](C(=O)NCc2cc4cnccc4[nH]2)CC3)c1 [Compound 56, (S)-N-((1H-pyrrolo[3,2-c]pyridin-2-yl)methyl)-3-((2,5-dimethylbenzyl)amino)-4-oxo-4,6,7,8-tetrahydropyrrolo[1,2-a]pyrazine-6-carboxamide] |
| > 6.30 | 5.60 to 6.30 | O=C(NCc1cc2cnccc2[nH]1)[C@@H]1CCc2c(Cl)nc(NCC3(c4ccccc4)COC3)c(=O)n21 [Compound 251] |
